Data as given in ChEMBL document CHEMBL1149031, “New bioactive taxoids from cell cultures of Taxus baccata” (1994).

Legend:
Bos taurus [1] = species: Bos taurus; assay: Ratio of compound ED50 to taxol ED50 for bovine brain tubulin assembly at 1 mg/ml of tubulin concentration
Bos taurus [2] = species: Bos taurus; assay: Ratio of compound ED50 to taxol ED50 for bovine brain tubulin assembly at 1.5 mg/ml of tubulin concentration
Bos taurus [3] = species: Bos taurus; assay: Induction of bovine brain tubulin assembly at 1 mg/ml of tubulin concentration
Bos taurus [4] = species: Bos taurus; assay: Induction of bovine brain tubulin assembly at 1.5 mg/ml of tubulin concentration
DMS-114 = assay: Cytotoxicity against human DMS114 cells; assay type: functional; settings: for CC50: read-out: LC50 (the source's name)
SF-539 = assay: Cytotoxicity against human SF539 cells; assay type: functional
NCI-H460 = assay: Cytotoxicity against human NCI-H460 cells; assay type: functional
OVCAR-3 = assay: Cytotoxicity against human OVCAR-3 cells; assay type: functional
HOP-62 = assay: Cytotoxicity against human HOP62 cells; assay type: functional
COLO 205 = assay: Cytotoxicity against human COLO205 cells; assay type: functional; settings: for CC50: read-out: LC50 (the source's name)
SNB-75 = assay: Cytotoxicity against human SNB75 cells; assay type: functional; settings: for CC50: read-out: LC50 (the source's name)

C/C=C(\C)C(=O)N[C@@H](c1ccccc1)[C@@H](O)C(=O)O[C@H]1C[C@@]2(O)[C@@H](OC(=O)c3ccccc3)[C@@H]3[C@]4(OC(C)=O)CO[C@@H]4C[C@H](O)[C@@]3(C)C(=O)[C@H](OC(C)=O)C(=C1C)C2(C)C
Ratio ED50 (Bos taurus [1]): 1.05
Ratio ED50 (Bos taurus [2]): 1.11
ED50 (Bos taurus [3]): 850 nM
ED50 (Bos taurus [4]): 950 nM

CCCC(=O)N[C@@H](c1ccccc1)[C@@H](O)C(=O)O[C@H]1C[C@@]2(O)[C@@H](OC(=O)c3ccccc3)[C@@H]3[C@]4(OC(C)=O)CO[C@@H]4C[C@H](O)[C@@]3(C)C(=O)[C@H](OC(C)=O)C(=C1C)C2(C)C
Ratio ED50 (Bos taurus [1]): 2.04
ED50 (Bos taurus [3]): 2350 nM

CCCCCC(=O)N(C)[C@@H](c1ccccc1)[C@@H](O)C(=O)O[C@H]1C[C@@]2(O)[C@@H](OC(=O)c3ccccc3)[C@@H]3[C@]4(OC(C)=O)CO[C@@H]4C[C@H](O)[C@@]3(C)C(=O)[C@H](OC(C)=O)C(=C1C)C2(C)C
Ratio ED50 (Bos taurus [1]): 1.66
ED50 (Bos taurus [3]): 1910 nM

CCCCCC(=O)N[C@@H](c1ccccc1)[C@@H](O)C(=O)O[C@H]1C[C@@]2(O)[C@@H](OC(=O)c3ccccc3)[C@@H]3[C@]4(OC(C)=O)CO[C@@H]4C[C@H](O)[C@@]3(C)C(=O)[C@H](O)C(=C1C)C2(C)C
Ratio ED50 (Bos taurus [1]): 2.57
ED50 (Bos taurus [3]): 2960 nM

CC(=O)O[C@H]1C(=O)[C@@]2(C)[C@H]([C@H](OC(=O)c3ccccc3)[C@]3(O)C[C@H](OC(=O)[C@H](O)[C@@H](NC(=O)c4ccccc4)c4ccccc4)C(C)=C1C3(C)C)[C@]1(OC(C)=O)CO[C@@H]1C[C@@H]2O [PACLITAXEL]
GI50 (DMS-114): 12.3 nM
TGI (DMS-114): 61.2 nM
CC50 (DMS-114): > 1000 nM
GI50 (SF-539): 3.66 nM
TGI (SF-539): 89.9 nM
CC50 (SF-539; read-out: LC50 (the source's name)): > 25000 nM
GI50 (NCI-H460): 21.9 nM
TGI (NCI-H460): > 1000 nM
GI50 (OVCAR-3): 19.7 nM
TGI (OVCAR-3): 48.7 nM
ED50 (Bos taurus [3]): 950 nM
GI50 (HOP-62): 67.1 nM
TGI (HOP-62): > 1000 nM
GI50 (COLO 205): 1.76 nM
TGI (COLO 205): 43.2 nM
CC50 (COLO 205): 145 nM
ED50 (Bos taurus [4]): 760 nM
GI50 (SNB-75): 8.08 nM
TGI (SNB-75): 77.3 nM
CC50 (SNB-75): > 1000 nM

CCCCCC(=O)N[C@@H](c1ccccc1)[C@@H](O)C(=O)O[C@H]1C[C@@]2(O)[C@@H](OC(=O)c3ccccc3)[C@@H]3[C@]4(OC(C)=O)CO[C@@H]4C[C@H](O)[C@@]3(C)C(=O)[C@H](OC(C)=O)C(=C1C)C2(C)C [TAXOL C]
Ratio ED50 (Bos taurus [1]): 1.05
GI50 (DMS-114): < 10 nM
TGI (DMS-114): 23.8 nM
CC50 (DMS-114): 21700 nM
GI50 (SF-539): < 10 nM
TGI (SF-539): < 10 nM
Ratio ED50 (Bos taurus [2]): 1.82
GI50 (NCI-H460): < 10 nM
LC50 (NCI-H460): 69800 nM
TGI (NCI-H460): 349 nM
GI50 (OVCAR-3): < 10 nM
LC50 (OVCAR-3): > 100000 nM
TGI (OVCAR-3): < 10 nM
ED50 (Bos taurus [3]): 1000 nM
GI50 (HOP-62): < 10 nM
LC50 (concentration killing 50% of cells) (HOP-62): 32000 nM
TGI (HOP-62): 12.1 nM
GI50 (COLO 205): < 10 nM
TGI (COLO 205): 22.9 nM
CC50 (COLO 205): 23300 nM
ED50 (Bos taurus [4]): 1400 nM
GI50 (SNB-75): < 10 nM
TGI (SNB-75): 19.2 nM
CC50 (SNB-75): > 100000 nM
